The values below come from publication PMC10237672, “Design and synthesis of novel anti-urease imidazothiazole derivatives with promising antibacterial activity against Helicobacter pylori” (PLOS ONE, 2023).

In brackets after ≈: the same amount, converted by molar mass. Entries after “also recorded” stand apart in the source; their conditions may differ.

The test system of data set [1] is H. pylori. Nature of the data set: IC50 against H. pylori, micro broth dilution test. To be noted: Helicobacter pylori, ATCC43504; H. pylori ATCC 43504, micro broth dilution, 72 h, OD 600 nm; read-out: IC50 value against H. pylori ± SEM. It counts as cell-based, Helicobacter pylori.
The target of a further data set is T1, Jack bean urease (Canavalia ensiformis, UniProt P07374).
T1 construct: purchased Sigma Aldrich
Nature of the data set: biochemical. It counts as biochemical. On the procedure: Reaction mixture comprising 40 μL of buffer (K2HPO4: 10 mmol/L, urea: 100 mmol/L, […]: 10 mmol/L, EDTA: 1 /L mmol, pH = 8.2) and 5 U/mL enzyme (10 μL) were pre-incubated with 10 μL of synthesized compounds (1 mM) and substrate urea (1 mM) were incubated at room temperature in 96 well plate for half an hour. After the incubation at room temperature, absorbance was taken at specific wavelength (630 nm) employing a microplate reader (Bio-Tek, USA) with R1 and R2 reagents in each well. The reactions were measured in triplicate fashion. To calculate the inhibition percentage following equation was used.
Percentage inhibition = 100 –[tested compound/control compound] × 100.

For a further data set, the target named is T2, urease (Canavalia ensiformis, UniProt P07374).
T2 construct: purchased Sigma Aldrich
Nature of the data set: Enzyme kinetics study (Michaelis-Menten, Lineweaver-Burk) of urease inhibition. It counts as biochemical, Jack bean. The conditions noted are these: urea substrate 0.5-2.0 mM, inhibitor 0, 1.5, 3.0, 4.5 μM, Lineweaver-Burk plot. The protocol:
The type of enzyme inhibition was determined by Michaelis-Menten kinetics experiments. In order to investigate the potential mechanism of action of the potent compound 2c, detailed kinetics studies were conducted. The initial inhibitory efficacy rates of enzyme activity were measured at four different concentrations of substrate (0.5, 1.0, 1.5 and 2.0 mM) in the presence or absence of compound 2c (0, 1.5, 3.0, 4.5 μM) against urease.
Kinetics studies were performed to determine the mode of action of compound 2c. The mechanism of inhibition of urease was determined by enzyme kinetics using urea as a substrate. To determine the type of inhibition, analyze the effect of inhibitor on Vmax and Km, a Lineweaver-Burk plot (reciprocal of reaction rates […] and reciprocal of substrate concentrations […]) was used.
Different concentrations of inhibitor 2c and substrate were used to perform kinetics. Four concentrations (0, 1.5, 3.0, 4.5 μM) of inhibitor 2c and four concentrations (0.5, 1.0, 1.5 and 2.0 mM) of substrate were used.

Data set [2] relates to H. pylori. Description: MIC against H. pylori, agar dilution method. It counts as cell-based, Helicobacter pylori. To be noted: Helicobacter pylori, ATCC43504; H. pylori ATCC 43504, agar dilution; read-out: MIC value against H. pylori ± SEM.

T2 sequence (P07374 whole entry, looked up): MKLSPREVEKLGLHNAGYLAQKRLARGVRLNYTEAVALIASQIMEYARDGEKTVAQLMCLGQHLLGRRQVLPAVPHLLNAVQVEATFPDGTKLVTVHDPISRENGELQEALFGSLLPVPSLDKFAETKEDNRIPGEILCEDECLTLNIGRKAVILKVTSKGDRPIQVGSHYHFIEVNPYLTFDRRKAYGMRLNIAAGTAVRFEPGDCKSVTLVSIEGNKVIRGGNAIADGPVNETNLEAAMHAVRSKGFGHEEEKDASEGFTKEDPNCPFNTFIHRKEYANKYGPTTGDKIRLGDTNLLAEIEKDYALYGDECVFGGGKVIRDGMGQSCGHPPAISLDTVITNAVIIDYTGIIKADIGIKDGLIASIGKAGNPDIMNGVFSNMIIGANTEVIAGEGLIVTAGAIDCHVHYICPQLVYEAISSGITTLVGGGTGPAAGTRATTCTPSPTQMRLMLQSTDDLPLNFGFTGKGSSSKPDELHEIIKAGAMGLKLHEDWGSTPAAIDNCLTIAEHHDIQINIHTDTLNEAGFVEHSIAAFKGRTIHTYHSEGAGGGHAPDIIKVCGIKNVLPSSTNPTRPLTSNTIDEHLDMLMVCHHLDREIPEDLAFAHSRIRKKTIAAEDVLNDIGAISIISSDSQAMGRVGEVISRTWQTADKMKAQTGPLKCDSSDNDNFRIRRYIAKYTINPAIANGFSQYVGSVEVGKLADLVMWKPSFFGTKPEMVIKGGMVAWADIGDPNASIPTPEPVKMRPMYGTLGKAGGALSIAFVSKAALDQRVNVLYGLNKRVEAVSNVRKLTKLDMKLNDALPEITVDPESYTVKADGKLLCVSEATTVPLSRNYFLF
T1 sequence (P07374 whole entry, looked up): as above

On to `CCCS(=O)(=O)Oc1cccc(-c2nc3sccn3c2-c2cccc(S(C)(=O)=O)c2)c1` [Compound 2c, 3-(5-(3-(Methylsulfonyl)phenyl)imidazo[2,1-b]thiazol-6-yl)phenyl propane-1-sulfonate], for which the melting point fell in the range of 188 to 191 °C. In the data set on H. pylori [1], the IC50 came to 281 ± 21 µM. This compound yielded an IC50 against Jack bean urease of 2.94 ± 0.05 µM. In addition, on Jack bean urease (ratio of IC50 vs thiourea), the “fold more potent than thiourea positive control (urease inhibition)” value is 8 fold. The “type of urease inhibition” value at urease was “competitive inhibition; also recorded: competitive inhibitor”. Further, the MIC in the data set with H. pylori [2] came to 800 µM (≈ 381 µg/mL).
